Assay results from patent US20040224935A1, “Topical antiandrogenic steroids” (Endorecherche, Inc., priority 2003, published 2004).
Read-outs that look alike come from different tables or passages of the source.

Columns and labels:
[1] = test system: Hamster's ear sebaceous glands; assay: Topical antiandrogenic activity, histomorphometry of the ear sebaceous glands in the hamster; assay type: in vivo, Male Golden Syrian hamster; settings: Mesocricetus auratus, 336 h, once daily, 14 days, sebaceous gland area, read-out: Antiandrogenic activity in Hamster's sebaceous glands Inh. Vs Cx (%); for inhibition in vivo at 0.001 mg: dose 1 μg applied topically on left ear of intact male hamster; for inhibition in vivo at 0.003 mg: dose 3 μg applied topically on left ear of intact male hamster; for inhibition in vivo at 0.01 mg: dose 10 μg applied topically on left ear of intact male hamster
From the text: Column 3 represents the dose of antiandrogenic compounds applied on the left ear of the intact male hamster.
Column 4 represents the relative inhibition in % of the area of the sebaceous gland of the left ear versus control hamster. Higher values approaching the effect of castration are preferable
The Antiandrogenic activity of antiandrogenic compounds has been measured using a Histomorphometry assay of the Ear Sebaceous Glands in the Hamster
1. Animals Male Golden Syrian, Hamster (SYR) of 110-120 g were obtained from Harlan Sprague Dawlay (Madison, USA) and housed up to 2 per cage in plastic cages in a temperature (22±3° C.) and light (12 h light/day, lights on at 7 h 15) in a controlled environment. The hamsters were fed with Certified Rodent Diet 5002 (pellet) and tap water ad libitum. The animals were acclimated for at least five days before the beginning of the study. Animals were randomly assigned to groups of eight hamsters. One group of hamsters was castrated under isoflurane-induced anesthesia on the day of dosing initiation (SD 1) and used as control group.
2. Treatments To evaluate the antiandrogenic activity, tested compounds were applied topically on the inner part of the left ear, once daily, for 14 days. Ten μL solution of acetone: ethanol: propylene Glycol (1:1:2; v:v:v) containing 0.1, 0.3 or 1.0 mg/mL of tested compound was carefully applied onto a region between the two cartilage ridges of the ventral surface of left pinna. For animals in the castrated and intact control groups ten-μL vehicle was applied onto the left ear. No solution will be applied on the right ear for any animals of the study.
3. Postmortem Observations and Measurements On Study Day 15, the hamsters were euthanized by cervical dislocation under isoflurane anesthesia. The left and right ears were collected attached together by the head skin, flat fixed on a paper and were immersed in 10% neutral buffered formalin. From the flat fixed ear and using paper puncture that makes a hole of 6 mm, the region where solution was applied was collected from each ear. Using a scalpel blade, the collected 6 mm round ear specimen was cut in the middle between the two cartilage ridges. The two equal parts of the ear round specimen were embedded in paraffin. After processing the tissue, the two parts were vertically embedded parallel to each other in a way that the flat 6 mm area was facing out. From each paraffin block, one section (5 μm thick) was cut and collected on a glass slide. Thus, each slide contained two elongated sections of 6 mm length. Slides were stained with hematoxylin and eosin.
4. Analysis of Sebaceous Gland Area Using the video camera and objective lens number X5 of the light microscope, the resulting field that appears on the screen has a length of 0.953 mm. From the glass slide, when we have examined the first 6 mm long section from the left to the right, the first and second fields were ignored and the third and fourth fields were captured for analysis by the image analyzer. Each field has the length of 0.953 mm. With the help of the screen mouse, the sebaceous glands within the whole field length (0.953mm) were marked. Also, an area with the length of the whole field and the height between stratum granulosum and the upper edge of the cartilage was drawn.
The image analyzer calculated the total area of the sebaceous glands (μm^2) in each examined field. We also obtained the area, which has the length of 0.953 mm and the height between stratum granulosum and the cartilage. In addition, the percentage of the area occupied by the glands was obtained. Thus, for each ear, two sections were cut and two fields from each section were analyzed. The total of the four readings was averaged and the mean standard of error calculated by the image analyzer. The results were expressed in μm^2 as the total surface of glands per field and also as percentage of the area occupied by the glands.

rat prostate = assay: Systemic antiandrogenic activity in immature male rats (castrated, DHT implant), prostate weight; settings: po, 168 h, 0.5 mg/animal per os once daily 7 days, % efficacy relative to inhibition by flutamide, read-out: RAT (in vivo) (systemic) Prostate Inh. % inh. (0.5 mg, per os)
Method: Column 5 represents the % of antiandrogenic efficacy in rat prostate, relatively to the percentage of inhibition of flutamide calculated by the formula:
(§1) % efficacy versus Flu=100×% inhib (compound)/% inhib (Flu).
(§2) Where the percentage of inhibition (% inhib) is calculated by the following formula:
% lnhib=100−[W (compound)−W (control)/W (DHT)−W (control)]×100.
W is the weight of the prostate.
(§3) C Systemic antiandrogenic activity (immature male rats)
(§4) 1. Animals Immature male rats (Crl:CD(SD)Br) 22 to 24-day old were obtained from Charles-River, Inc. (St-Constant, Quebec, Canada) and housed up to 5 per cage in plastic bins in a temperature (23±1° C.)—and light (12 h light/day, lights on at 7h15)—controlled environment. The rats were fed rodent chow and tap water ad libitum. The day following their arrival, the animals were orchidectornized (CX) under Isoflurane anesthesia via scrotal route and randomly assigned to groups of 5 animals. One silastic implant of dihydrotestosterone (DHT; length of implant: 1 cm) was inserted subcutaneously in the dorsal area of animals at the time of orchidectomy. One group of 5 animals was CX only as control (no DHT implant inserted).
(§5) 2. Treatments To evaluate the antiandrogenic activity, tested compounds were administered orally by gavage once daily at a dose of 0.5 mg/animal for 7 days (SD 1 to 7). Compounds were solubilized (when possible) in dimethylsulfoxide (DMS, 10% final concentration) and administered as suspension in 0.4% methylcellulose. Rats in CX control and CX+DHT control groups received the vehicle alone during the 7-day period. One group of animals received the antiandrogen Flutamide as reference. The animals were killed by cervical dislocation under isoflurane anesthesia on the 8th morning following castration. The ventral prostate and seminal vesicles were rapidly dissected and weighed.
(§6) 3. Calculations and Statistical Analysis The percentage of inhibition (% inhib) is calculated by the following formula:
(§7) % Inhib=100−[W (compound)−W (control)/W (DHT)−W (control)]×100.
(§8) This percentage is reported as % of efficacy, relatively to the percentage of inhibition of flutaride calculated by the formula: % efficacy versus Flu=100×% inhib (compound)/% inhib (Flu).
(§9) W is the weight of the prostate or the seminal vesicle.

rat seminal vesicle = assay: Systemic antiandrogenic activity in immature male rats (castrated, DHT implant), seminal vesicle weight; settings: po, 168 h, 0.5 mg/animal per os once daily 7 days, % efficacy relative to inhibition by flutamide, read-out: RAT (in vivo) (systemic) SV Inh % inh. (0.5 mg, per os)
Method: Column 6 represents the % of antiandrogenic efficacy on the rat seminal vesicle, relative to the percentage of inhibition by flutamide calculated by the formula:
as §1, §2, §7
W is the weight of the seminal vesicle.
as §3, §4, §5, §6, §8, §9

[2] = test system: Shionogi mouse mammary carcinoma cells; assay: In vitro androgenic/antiandrogenic activity, DHT-stimulated Shionogi cell number; assay type: cell-based; settings: for Shionogis (In Vitro) VS OH-FLU (ratio of Ki of hydroxyflutamide versus tested compound): OH-Flu = 1, DHT-stimulated cell number, higher values preferable
[3] = Mus musculus, read-out: Shionogis (In Vitro) IC50(nM), inhibition of DHT-stimulated cell number, 10-12 days

For C[C@@H]1CCC2C3CCc4c(C#N)cccc4C3CC[C@]2(C)[C@H]1O (stereo partly shown) [EM-3803], the inhibition in vivo at 0.001 mg [1] was 33.3%, the inhibition in vivo at 0.003 mg [1] was 51.8% and the inhibition in vivo at 0.01 mg [1] was 37%. It also gave an inhibition in vivo at 0.5 mg (rat prostate) of 0%, an inhibition in vivo at 0.5 mg (rat seminal vesicle) of 30% and an IC50 ([2]; Mus musculus, inhibition of DHT-stimulated cell number, 10-12 days, read-out: Shionogis (In Vitro) IC50) of 11 nM. For the same molecule, the IC50 ([2]; inhibition of DHT-stimulated cell number, 10-12 days, read-out: Shionogis (In Vitro) IC50) was 8.6 nM.
Molecule CC[C@@H]1CC2C3CCc4c(C#N)cccc4C3CC[C@]2(C)[C@H]1O (stereo partly shown) [EM-3852] has an inhibition in vivo at 0.003 mg [1] of 66.6%, an inhibition in vivo at 0.01 mg [1] of 70.4% and an inhibition in vivo at 0.5 mg (rat prostate) of 0%. For the same molecule, the inhibition in vivo at 0.5 mg (rat seminal vesicle) was 0%, the IC50 [2, 3] was 16.1 nM and the “Shionogis (In Vitro) VS OH-FLU (ratio of Ki of hydroxyflutamide versus tested compound)” value [2] was 8.7.
CC#Cc1ccc2c(c1C#N)CCC1C2CC[C@]2(C)C(=O)CCC12 (stereo partly shown) [EM-4142] showed an inhibition in vivo at 0.001 mg [1] of 18.5%, an inhibition in vivo at 0.003 mg [1] of 18.5% and an inhibition in vivo at 0.01 mg [1] of 37%. It also gave an inhibition in vivo at 0.5 mg (rat prostate) of 0%, an inhibition in vivo at 0.5 mg (rat seminal vesicle) of 22% and an IC50 [2, 3] of 29 nM. For the same molecule, the “Shionogis (In Vitro) VS OH-FLU (ratio of Ki of hydroxyflutamide versus tested compound)” value [2] was 3.7.
Molecule CC(C)[C@H]1CC2C3CCc4c(C#N)cccc4C3CC[C@]2(C)[C@H]1O (stereo partly shown) [EM-4157] has an inhibition in vivo at 0.001 mg [1] of 18.5%, an inhibition in vivo at 0.003 mg [1] of 29.6% and an inhibition in vivo at 0.01 mg [1] of 40.7%. The inhibition in vivo at 0.5 mg (rat prostate) was 0%, the inhibition in vivo at 0.5 mg (rat seminal vesicle) was 55% and the IC50 [2, 3] was 33 nM. The “Shionogis (In Vitro) VS OH-FLU (ratio of Ki of hydroxyflutamide versus tested compound)” value [2] was 5.
C#Cc1ccc2c(c1)CCC1C2CC[C@@]2(C)C1C[C@@H](C)[C@@H]2O (stereo partly shown) [EM-5035] was tested, and the inhibition in vivo at 0.001 mg [1] was 3.7%, the inhibition in vivo at 0.003 mg [1] was 11.1% and the inhibition in vivo at 0.01 mg [1] was 51.9%. The inhibition in vivo at 0.5 mg (rat prostate) was 11%, the inhibition in vivo at 0.5 mg (rat seminal vesicle) was 4% and the IC50 [2, 3] was 66 nM. For the same molecule, the “Shionogis (In Vitro) VS OH-FLU (ratio of Ki of hydroxyflutamide versus tested compound)” value [2] was 1.6.
